Where two headings read alike, the source gives them in different places.
What was measured:
[1] = Decomposition stability of single perfume component in sodium chlorite/benzalkonium chloride preparation, GC-MS, Example 5; details: for Area change rate (%) / Decomposition stability of additive component: 50° C. for 2 weeks
[2] = Decomposition stability of perfume components in sodium chlorite/benzalkonium chloride preparation, GC-MS, Examples 1 to 4 (perfume mixtures)
[3] = Lewis acidity measurement method (1): reaction rate constant of CoTPP and oxygen in the presence of Lewis acid; format: physicochemical
[4] = perfume component 2 ppm in preparation
[5] = perfume component 3 ppm in preparation
[6] = perfume component 5 ppm in preparation
[7] = perfume component 1 ppm in preparation
[8] = Examples 1 to 4, aged products after 2 weeks of storage, GC-MS
[9] = perfume component 10 ppm in preparation
[10] = perfume component 50 ppm in preparation
[11] = perfume component 6 ppm in preparation
[12] = CoTPP and oxygen under the presence of Lewis acid, MeCN, room temperature

With `CC(C)C12CCC(C)(CC1)O2` [1,4-cineole] the “Area change rate (%)” value [1, 4] was 95%.
With `OCc1ccccc1` [Benzyl alcohol] the “Area change rate (%)” value [1, 5] was 84% and the “Decomposition stability of additive component” value (“Decomposition stability” for short) [1, 5] was “∘ (70% or more)”.
With `C=C(C)C1CC=C(C)C(=O)C1` (centres unmarked) [Carvone] the “Area change rate (%)” value [1, 6] was 98% and the “Decomposition stability” value [1, 6] was “∘ (70% or more)”.
In the case of `C=C(C)[C@@H]1CC[C@@H](C)C(=O)C1` [Dihydrocarvone], the “Area change rate (%)” value ([1]; perfume component 4 ppm in preparation) is reported as 91%.
For `CC1CCC(C(C)(C)O)CC1` (centres unmarked) [Dihydroterpineol], the “Area change rate (%)” value [1, 4] was 99%.
With `CC12CCC(CC1)C(C)(C)O2` [Eucalyptol] the “Area change rate (%)” value [1, 7] was 99% and the “Decomposition stability” value [1, 7] was “∘ (70% or more)”.
With `C=CCc1ccc(O)c(OC)c1` [Eugenol] the “Area change rate (%)” value [1, 6] was 97%.
In the case of `C=CC(C)(O)CCC=C(C)C` (centres unmarked) [Linalool, reference compound], the “Fate of perfume component in aged product (in words)” value (“Fate of perfume component” below) ([1]; Example 5, aged product after 2 weeks at 50° C., GC-MS) is reported as “remarkably decreased”, the “Area change rate (%)” value [1, 6] is reported as 0% and the “Fate of perfume component” value [2, 8] is reported as “no peaks were observed”.
For `Cc1coc2c1CCC(C)C2` (centres unmarked) [Menthofuran, reference compound], the “Fate of perfume component” value [2, 8] was “no peaks were observed”.
For `CC1CCC(C(C)C)C(O)C1` (centres unmarked) [Menthol], the “Area change rate (%)” value [1, 6] was 100%, the “Decomposition stability” value [1, 6] was “∘ (70% or more)” and the “Area change rate (%)” value [1, 9] was 100%. For the same compound, the “Decomposition stability” value [1, 9] was “∘ (70% or more)”, the “Area change rate (%)” value [1, 10] was 100% and the “Decomposition stability” value [1, 10] was “∘ (70% or more)”.
With `CC(C)[C@@H]1CC[C@@H](C)CC1=O` [Menthone] the “Area change rate (%)” value [1, 6] was 75%, the “Decomposition stability” value [1, 6] was “∘ (70% or more)” and the “Area change rate (%)” value [1, 9] was 80%. For the same compound, the “Decomposition stability” value [1, 9] was “∘ (70% or more)”.
With `CC1=CC(=O)C(C(C)C)CC1` (centres unmarked) [Piperitone] the “Area change rate (%)” value [1, 11] was 89% and the “Decomposition stability” value [1, 11] was “∘ (70% or more)”.
In the case of `CC(C)=C1CC[C@@H](C)CC1=O` [Pulegone], the “Area change rate (%)” value [1, 6] is reported as 100% and the “Decomposition stability” value [1, 6] is reported as “∘ (70% or more)”.
For `CC(C)C12CCC(C)(O)C1C2` (centres unmarked) [Thujanol, reference compound], the “Fate of perfume component” value [2] was “no peaks were observed”.
With `Cc1ccc(C(C)C)c(O)c1` [Thymol] the “Area change rate (%)” value [1, 6] was 76% and the “Decomposition stability” value [1, 6] was “∘ (70% or more)”.
Work on `CC(C)(C)CC(C)(C)c1ccc(OCCOCC[N+](C)(C)Cc2ccccc2)cc1.[Cl-]` [benzetonium chloride, benzethonium chloride] yielded a kcat [3, 12] of 0.24 M^−2 s^−1.
For `Cc1ccccc1C(C)C` [o-cymene, reference compound], the “Fate of perfume component” value [2, 8] was “no peaks were observed”.
In the case of `CCCC[N+](CCCC)(CCCC)CCCC.F[P-](F)(F)(F)(F)F` [tetrabutylammonium hexafluorophosphate], the kcat [3] is reported as over 0.1 M^−2 s^−1.
benzalkonium chloride showed a kcat [3, 12] of 0.18 M^−2 s^−1.

— patent US20250221408A1, “COMPOSITION” (EARTH CORPORATION, priority 2022, published 2025)
